Laboratory results as given in patent US20220241263A1, “PD-1 AXIS BINDING ANTAGONIST TO TREAT CANCER WITH GENETIC MUTATIONS IN SPECIFIC GENES” (Ares Trading S.A., priority 2019, published 2022).
Read-outs that look alike come from different tables or passages of the source.

Columns and labels:
[1] = system: patients with advanced RCC (aRCC); experiment: Phase 3 clinical trial of avelumab in combination with axitinib versus sunitinib (NCT02684006); format: in vivo, human
Protocol: Patients will be stratified according to ECOG performance status (0 versus 1) and LDH (>1.5 ULN vs. ≤1.5 ULN). In arm A (avelumab in combination with axitinib), avelumab will be given as a 1 hour intravenous infusion (IV) every 2 weeks in a 6-week cycle. Axitinib will be given orally (PO) twice daily (BID), with or without food, on a continuous dosing schedule.
Axitinib treatment may be adjusted by dosing interruption with or without dose reduction. Intrapatient axitinib dose escalation may occur if the intrapatient escalation criteria are met.
Study Treatment: Axitinib will be given orally twice daily PO on a continuous daily dosing schedule. Avelumab will be given as a 1 hour intravenous infusion every 2 weeks in a 6-week cycle.
Tumor Assessments: Anti-tumor activity will be assessed by radiological tumor assessments and will be based on RECIST guidelines version 1.1 for primary and secondary endpoints and on immune-related RECIST (irRECIST) guidelines for exploratory endpoints. Tumor assessments will be performed every 6 weeks (Q6W) up to 1 year from first dose therapy; thereafter, tumor assessments will be performed every 2 cycles. […]

[2] = system: patients with advanced renal cell carcinoma
Text: Transcript levels were quantitated by the Personalis ACE Cancer Transciptome Analysis pipeline which uses STAR version 2.4.2a-p1 to align reads to the NCBI hs37d5 annotation 105 reference genome and produces Transcripts Per Million (TPM) values for each gene. TPM values were log2 transformed for further analysis.
Weighted Gene Co-Expression Network Analysis (WGCNA) was used to find co-expressed modules in the 720 baseline transcriptomic samples. […] The soft power of 6 was chosen based on goodness of fit to a scale-free network. A signed WGCNA network was constructed in R^37 with mergeCutHeight set to 0.25 and reassignThreshold set to 0. After removing non-coding genes and modules with size <10, 25 modules were identified. Gene signature scores were computed from the average expression of genes in a module. Univariate Cox Proportional Hazards (Cox PH) model was used to assess the dependence of PFS on each gene signature, which was categorized into high vs low groups according to median signature score. Multivariate analysis was also carried out adjusting for age and sex. Modules were annotated through identifying top enriched gene sets via hypergeometric tests using public gene set collections including the MSigDB Hallmark, GO Biological Process and LM22.
To assess the robustness of identified gene modules, next was carried out a consensus WGCNA analysis. […] The soft power of 6 was chosen based on goodness of fit to a scale-free network. 720 baseline data were randomly subsampled down to 80% of samples for 1,000 times. With each subsampled dataset, we constructed a co-expression network using the WGCNA procedure as described above. An adjacency matrix was constructed by counting the frequencies two genes were clustered into the same network module. A consensus network was then constructed using the new adjacency matrix via the standard WGCNA approach. Edges were then filtered by adjacency measure of 0.8. Modules with size <10 were removed. Consensus WGCNA identified 23 modules. Hypergeometric tests were then carried out to annotate modules as described above.
To refine the 306-gene immune response module, we selected genes annotated for immune-related functionality and had univariate Cox PH p-value <0.01 in the combination arm.

[3] = system: patients with advanced renal cell carcinoma; remark: listed apart in the source
Protocol: Tumor samples were collected from patients in Example 2 and were subject to whole exome sequencing to identify genetic mutations. Software tools BWA and a combination of MuTect, Vardict, Picard, and other vendor tools were used.
The Cox proportional hazards (PH) regression model was used to assess the dependence of progression-free survival (PFS) on mutational status of each gene. In addition, multivariate analysis was also carried out adjusting for age, sex and tumor mutation burden. […] Genes were filtered based on the following criteria: • A. Mutated at 5% or more in the B9991003 cohort • B. Interaction term P-value<0.05 in both model (1) and model (2), testing for treatment specific differences of the mutations on survival outcome. • C.

[4] = system: patients with advanced renal cell carcinoma; experiment: CD8 immunohistochemistry study: PFS by number of CD8+ cells at the invasive margin in the phase 3 study; format: in vivo, human
Protocol: CD8 expression was assessed by immunohistochemistry using clone C8/144B and reported in terms of the number of CD8+ cells in relation to the total number of […] or at the invasive margin, with the median value as the cut point.

[5] = in vivo; cited from earlier work
[6] = patients with CDL163L1 mutation
[7] = patients with CDL163L1 wild type
[8] = patients with LOC728763 mutation
[9] = patients with LOC728763 wild type
[10] = patients with SPATA31C2 mutation
[11] = patients with SPATA31C2 wild type

## CCN(CC)CCNC(=O)c1c(C)[nH]c(/C=C2\C(=O)Nc3ccc(F)cc32)c1C [sunitinib]
[1]; PD-L1-positive tumors, median follow-up for overall survival 11.6 and 10.7 months
  patients had died: 44 patients
[1]; patients with PD-L1-positive tumors
  objective response rate: 25.5%
[2]; greater than median expression of JAVELIN Renal 101 Immuno Signature
  median PFS: 8.3 months
[2]; less than median expression of JAVELIN Renal 101 Immuno Signature
  median PFS: 9.0 months
[2]; within treatment arm
  HR for PFS by tumor mutational burden (TMB): 0.79
  HR for PFS, high expression of IMmotion 150 angiogenesis signature: 0.64
  HR for PFS, high vs low JAVELIN Renal 101 Angiogenesis Signature: 0.56
  HR for PFS, high vs low JAVELIN Renal 101 Immuno Signature: 0.98
[3]; patients with ABCA1 mutation
  Rate of PFS at 15 months: 25%
[3]; patients with ABCA1 wild type
  Rate of PFS at 15 months: 25%
  Rate of PFS at 20 months: 25%
[3]; patients with ARVCF mutation
  Rate of PFS at 15 months: 43%
  Rate of PFS at 20 months: 39%
[3]; patients with ARVCF wild type
  Rate of PFS at 15 months: 22%
  Rate of PFS at 20 months: 22%
[3]; [6]
  Rate of PFS at 15 months: 15%
  Rate of PFS at 20 months: 15%
[3]; [7]
  Rate of PFS at 15 months: 25%
  Rate of PFS at 20 months: 25%
[3]; patients with DNMT1 mutation
  Rate of PFS at 15 months: 0%
  Rate of PFS at 20 months: 0%
[3]; patients with DNMT1 wild type
  Rate of PFS at 15 months: 25%
  Rate of PFS at 20 months: 25%
[3]; patients with FOXO1 mutation
  Rate of PFS at 15 months: 10%
  Rate of PFS at 20 months: 10%
[3]; patients with FOXO1 wild type
  Rate of PFS at 15 months: 25%
  Rate of PFS at 20 months: 25%
[3]; patients with IL16 mutation
  Rate of PFS at 15 months: 25%
  Rate of PFS at 20 months: 25%
[3]; patients with IL16 wild type
  Rate of PFS at 15 months: 23%
  Rate of PFS at 20 months: 23%
[3]; [8]
  Rate of PFS at 15 months: 25%
  Rate of PFS at 20 months: 25%
[3]; [9]
  Rate of PFS at 15 months: 23%
  Rate of PFS at 20 months: 23%
[3]; patients with MCR1 mutation
  Rate of PFS at 15 months: 30%
[3]; patients with MCR1 wild type
  Rate of PFS at 15 months: 30%
  Rate of PFS at 20 months: 30%
[3]; patients with MYH7B mutation
  Rate of PFS at 15 months: 10%
[3]; patients with MYH7B wild type
  Rate of PFS at 15 months: 25%
  Rate of PFS at 20 months: 25%
[3]; patients with PTEN mutation
  Rate of PFS at 15 months: 20%
[3]; patients with PTEN wild type
  Rate of PFS at 15 months: 25%
  Rate of PFS at 20 months: 25%
[3]; [10]
  Rate of PFS at 15 months: 25%
  Rate of PFS at 20 months: 25%
[3]; [11]
  Rate of PFS at 15 months: 23%
  Rate of PFS at 20 months: 23%
[3]; patients with STAB2 mutation
  Rate of PFS at 15 months: 30%
  Rate of PFS at 20 months: 30%
[3]; patients with STAB2 wild type
  Rate of PFS at 15 months: 25%
  Rate of PFS at 20 months: 25%
[4]; high numbers of CD8+ cells at the invasive margin
  median PFS: 7.1 months
[4]; low numbers of CD8+ cells
  median PFS: 11.1 months
[4]; within treatment arm
  HR for PFS, high vs low numbers of CD8+ cells at the invasive margin: 1.42

## avelumab: an anti-PD-L1 IgG1 monoclonal antibody
[5]
  half-life: 72 to 120 h
